Patent publication US20240156825A1, “USE OF SELECTIVE VEGFR2 AND FGFR1 INHIBITORS” (Fountain Therapeutics Inc., priority 2022, published 2024)
Read-outs that look alike come from different tables or passages of the source.

Tests used:
Zmpste24−/− mice = test: Mouse model of progeria: body fat (Echo MRI), lean muscle, body weight, intrascapular brown fat; type: in vivo; settings: oral gavage QD5 for 56 days; for Body fat (Echo MRI) vs vehicle / Intrascapular brown fat mass (percent of body weight) vs vehicle: Brivanib alaninate 50, SU5402 25, Cediranib maleate 5, Regorafenib 10, infigratinib 5 mg/kg; for Body weight vs vehicle / Lean muscle vs vehicle: SU5402 25, Cediranib maleate 5, Regorafenib 10, infigratinib 5 mg/kg
Protocol: Zmpste24 mice, a progeria model mouse line, were dosed with either 50 mg/kg Brivanib alaninate for 56 days, 5 days on, 2 days off (QD5), or vehicle alone. The dose was administered via oral gavage as a suspension of 18% (w/v) PEG400 2% (w/v) Tween-80 in water . The vehicle alone was 18% (w/v) PEG400 2% (w/v) Tween-80 in water.
The body fat of the mice was measured by an Echo MRI throughout the treatment.
Samples of intrascapular brown adipose tissue from 15 week old mice treated with Brivanib Alaninate or vehicle for 56 days underwent Hematoxylin and Eosin (H&E) staining.
Zmpste24−/− mice, a progeria model mouse line, were dosed with either 25 mg/kg SU5402 for 56 days, 5 days on, 2 days off (QD5) or vehicle alone. The dose was administered via oral gavage as a suspension of 5% (w/v) DMSO 9% (w/v) PEG400 1% (w/v) Tween-80 in saline. The vehicle alone was 5% (w/v) DMSO 9% (w/v) PEG400 1% (w/v) Tween-80 in saline.
The body fat of the mice was measured by an Echo […]. Lean muscle and body weight were also measured.
The dose was administered via oral gavage as a suspension of 18% (w/v) PEG400 2% (w/v) Tween-80 in water . The vehicle alone was 18% (w/v) PEG400 2% (w/v) Tween-80 in water.
The body fat of the mice was measured by an Echo MRI. […] There was also no alteration of intrascapular brown adipose tissue mass (FIG. 5D).
The dose was administered via oral gavage as a suspension of 18% (w/v) PEG400 2% (w/v) Tween-80 in water. The vehicle alone was 18% (w/v) PEG400 2% (w/v) Tween-80 in water.
The body fat of the mice was measured by an Echo MM. […] There was also no alteration of intrascapular brown adipose tissue mass (FIG. 6D).
The body fat of the mice was measure by an Echo MRI. […] There was also no alteration of intrascapular brown adipose tissue mass (FIG. 7D). […]

VEGFR2 and FGFR1 = test: Selection of compounds that selectively inhibit both VEGFR2 and FGFR1 (average relative IC50); type: biochemical;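 also: relative IC50 is the IC50 for VEGFR2 or FGFR1 divided by the next-lowest IC50 reported against any target gene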
FGFR1 [1] = target: T1, FGFR1 (Homo sapiens, UniProt P11362)
any gene target = settings: cited from earlier work
VEGFR2 [2] = target: T2, VEGFR2 (Homo sapiens, UniProt P35968); settings: relative IC50: reported IC50 toward VEGFR2 divided by next lowest reported IC50 to any gene target
FGFR1 [3] = target: T1, FGFR1; settings: reported IC50 to FGFR1; read-out: FGFR1 IC50_μM; cited from earlier work
VEGFR2 [4] = target: T2, VEGFR2; settings: cited from earlier work
[5] = lowest reported IC50 to any gene target, read-out: Min IC50_μM
[6] = reported IC50 to VEGFR2, read-out: VEGFR2 IC50_μM
[7] = average of VEGFR2 and FGFR1 relative IC50
[8] = relative IC50: reported IC50 toward FGFR1 divided by next lowest reported IC50 to any gene target
[9] = lowest reported IC50 to any gene target, read-out: min IC50
[10] = next lowest IC50 value to any gene target, read-out: Min IC50_μM
[11] = reported IC50 to VEGFR2, Table 3, selective inhibitors of VEGFR2, read-out: VEGFR2 IC50_μM
[12] = next lowest IC50 value to any gene target, Table 3, read-out: Min IC50_μM

T1 sequence (P11362 22-822, species assumed): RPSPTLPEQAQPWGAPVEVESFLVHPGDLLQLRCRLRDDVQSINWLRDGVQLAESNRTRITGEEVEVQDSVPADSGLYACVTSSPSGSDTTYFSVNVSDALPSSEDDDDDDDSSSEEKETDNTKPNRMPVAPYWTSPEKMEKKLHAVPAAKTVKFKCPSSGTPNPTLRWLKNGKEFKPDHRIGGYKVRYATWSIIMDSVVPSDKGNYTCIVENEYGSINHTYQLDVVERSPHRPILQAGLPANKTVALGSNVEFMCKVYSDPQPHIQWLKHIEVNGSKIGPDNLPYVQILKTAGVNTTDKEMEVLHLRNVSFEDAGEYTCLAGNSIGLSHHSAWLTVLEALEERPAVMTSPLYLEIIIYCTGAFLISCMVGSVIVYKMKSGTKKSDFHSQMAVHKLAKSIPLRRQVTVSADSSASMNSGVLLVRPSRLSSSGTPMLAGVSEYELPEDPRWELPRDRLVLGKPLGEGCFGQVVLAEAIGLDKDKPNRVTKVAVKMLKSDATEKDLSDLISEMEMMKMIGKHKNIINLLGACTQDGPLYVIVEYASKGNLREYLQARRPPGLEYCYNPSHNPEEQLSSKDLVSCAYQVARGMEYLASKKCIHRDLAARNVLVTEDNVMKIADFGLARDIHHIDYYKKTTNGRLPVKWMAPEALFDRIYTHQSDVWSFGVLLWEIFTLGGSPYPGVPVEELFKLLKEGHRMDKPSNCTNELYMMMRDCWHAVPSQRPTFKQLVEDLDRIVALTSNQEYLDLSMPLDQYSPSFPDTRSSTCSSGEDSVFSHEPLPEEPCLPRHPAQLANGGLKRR
T2 sequence (P35968 20-1356, species assumed): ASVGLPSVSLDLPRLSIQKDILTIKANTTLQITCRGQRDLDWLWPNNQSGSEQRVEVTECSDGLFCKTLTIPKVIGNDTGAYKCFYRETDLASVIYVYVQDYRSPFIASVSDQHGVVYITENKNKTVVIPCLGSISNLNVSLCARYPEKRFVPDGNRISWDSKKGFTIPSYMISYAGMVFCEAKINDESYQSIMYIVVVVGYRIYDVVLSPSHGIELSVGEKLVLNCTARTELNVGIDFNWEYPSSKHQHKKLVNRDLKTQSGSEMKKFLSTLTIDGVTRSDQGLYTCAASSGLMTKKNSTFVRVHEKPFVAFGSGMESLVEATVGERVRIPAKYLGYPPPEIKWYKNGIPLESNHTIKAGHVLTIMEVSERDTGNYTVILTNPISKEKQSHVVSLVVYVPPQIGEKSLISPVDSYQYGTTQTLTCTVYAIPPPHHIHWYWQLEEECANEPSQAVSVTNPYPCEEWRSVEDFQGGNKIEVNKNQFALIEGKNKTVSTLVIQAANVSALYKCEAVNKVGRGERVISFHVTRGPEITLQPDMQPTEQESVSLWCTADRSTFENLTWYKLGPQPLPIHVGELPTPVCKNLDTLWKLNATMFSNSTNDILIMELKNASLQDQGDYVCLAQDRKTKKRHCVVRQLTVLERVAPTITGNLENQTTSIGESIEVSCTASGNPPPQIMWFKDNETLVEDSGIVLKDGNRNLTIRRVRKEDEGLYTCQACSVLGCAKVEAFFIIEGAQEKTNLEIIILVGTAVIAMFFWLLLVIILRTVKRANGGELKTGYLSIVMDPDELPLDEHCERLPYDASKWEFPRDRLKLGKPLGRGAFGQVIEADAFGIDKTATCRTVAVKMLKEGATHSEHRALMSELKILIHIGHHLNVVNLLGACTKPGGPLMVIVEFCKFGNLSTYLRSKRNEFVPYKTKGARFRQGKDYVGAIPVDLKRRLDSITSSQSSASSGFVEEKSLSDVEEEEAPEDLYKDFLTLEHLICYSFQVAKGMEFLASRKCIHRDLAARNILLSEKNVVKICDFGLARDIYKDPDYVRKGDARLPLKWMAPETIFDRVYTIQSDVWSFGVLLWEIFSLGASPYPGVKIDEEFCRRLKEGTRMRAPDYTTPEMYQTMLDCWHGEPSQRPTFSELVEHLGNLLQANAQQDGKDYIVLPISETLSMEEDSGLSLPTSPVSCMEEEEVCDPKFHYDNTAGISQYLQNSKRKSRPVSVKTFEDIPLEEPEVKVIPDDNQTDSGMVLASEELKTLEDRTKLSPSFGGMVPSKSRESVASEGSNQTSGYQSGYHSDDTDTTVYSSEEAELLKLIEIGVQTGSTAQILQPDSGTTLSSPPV

VEGFR2, rIC50 (VEGFR2 [2])	FGFR1, rIC50 (FGFR1 [1]; [8])	Compound	IC50 (FGFR1 [3])	IC50 (any gene target; [5])	avg rIC50 (VEGFR2 and FGFR1; [7])	IC50 (any gene target; [9])	further results
		CCN1CCN(c2ccc(Nc3cc(N(C)C(=O)Nc4c(Cl)c(OC)cc(OC)c4Cl)ncn3)cc2)CC1 [Infigratinib]					Body fat (Echo MRI) vs vehicle (Zmpste24−/− mice): did not show an increase; Intrascapular brown fat mass (percent of body weight) vs vehicle (Zmpste24−/− mice): no alteration; Body weight vs vehicle (Zmpste24−/− mice): did not show an increase; Lean muscle vs vehicle (Zmpste24−/− mice): did not show an increase
		CC(C)(C)NC(=O)Nc1nc2nc(N)ncc2cc1-c1c(Cl)cccc1Cl [compound 5328112]	0.11 µM	0.13 µM			
0.5	10.0	COc1cc2c(Nc3ccc(C#N)cc3F)ncnc2cc1OCCn1ccnn1 [compound 5329034, Anilinoquinazoline deriv. 36, reference compound]			5.3	0.3 µM	IC50 (VEGFR2 [4]; [6]): 0.3 µM; IC50 (any gene target; [10]): 0.6 µM
		CC(C)(C)NC(=O)Nc1nc2nc(N)ncc2cc1-c1ccccc1 [compound 5329111]	3.7 µM	3.71 µM			
1.0	1.1	CONC(=O)c1cc(Nc2ncnn3cc(-c4nnc(N(C)C)o4)c(C(C)C)c23)c(F)cc1F [compound 9982235, 5-[6-(5-Dimethylamino-[1,3,4]oxadiazol-2-yl)-5-isopropyl-pyrrolo[2,1-f][1,2,4]triazin-4-ylamino]-2,4-difluoro-N-methoxy-benzamide, reference compound]			1.0	0.007 µM	IC50 (VEGFR2 [4]; [11]): 0.0067 µM; IC50 (any gene target; [12]): 0.0067 µM
1.0	2.2	CONC(=O)c1cc(Nc2ncnn3cc(-c4nnc(CS(C)(=O)=O)o4)c(C(C)C)c23)c(F)cc1F [compound 10436729, 2,4-Difluoro-5-[5-isopropyl-6-(5-methanesulfonylmethyl-[1,3,4]oxadiazol-2-yl)-pyrrolo[2,1-f][1,2,4]triazin-4-ylamino]-N-methoxy-benzamide, reference compound]			1.6	0.002 µM	IC50 (VEGFR2 [4]; [11]): 0.0021 µM; IC50 (any gene target; [12]): 0.0021 µM
		Cc1cc(C)c(C)c(-c2cc3cnc(NCCCN4CCN(C)CC4)nc3nc2NC(=O)NC(C)(C)C)c1C [compound 10602350]	0.14 µM	0.14 µM			
1.0	3.1	CONC(=O)c1cc(Nc2ncnn3cc(-c4nnc(CC(C)C)o4)c(C(C)C)c23)c(F)cc1F [compound 11352215, 2,4-Difluoro-5-[6-(5-isobutyl-[1,3,4]oxadiazol-2-yl)-5-isopropyl-pyrrolo[2,1-f][1,2,4]triazin-4-ylamino]-N-methoxy-benzamide, reference compound]			2.1	0.002 µM	IC50 (VEGFR2 [4]; read-out: VEGFR2 IC50_μM, reported IC50 to VEGFR2, Table 3, selective inhibitors of VEGFR2): 0.0021 µM; IC50 (any gene target; [12]): 0.0021 µM
1.0	1.8	CONC(=O)c1cc(Nc2ncnn3cc(-c4nnc(CC(F)(F)F)o4)c(C(C)C)c23)c(F)cc1F [compound 11455031, 2,4-Difluoro-5-{5-isopropyl-6-[5-(2,2,2-trifluoro-ethyl)-[1,3,4]oxadiazol-2-yl]-pyrrolo[2,1-f][1,2,4]triazin-4-ylamino}-N-methoxy-benzamide, reference compound]			1.4	0.025 µM	IC50 (VEGFR2 [4]; [11]): 0.025 µM; IC50 (any gene target; [12]): 0.025 µM
		COC(=O)C1=C(c2ccccc2)c2cc(C)ccc2C1=O.COC(=O)C1=C(c2ccccc2)c2ccc(C)cc2C1=O [compound 44330102]	6.4 µM	6.4 µM			
		COC(=O)C1=C(c2ccccc2)c2ccncc2C1=O [compound 44330158]	6.8 µM	6.8 µM			
		NC(=O)C1=C(c2ccc(Cl)cc2)c2ccccc2C1=O [compound 44330203]	5.4 µM	5.4 µM			
		C=CC(=O)Nc1ccc(CN(C(=O)Nc2c(Cl)c(OC)cc(OC)c2Cl)c2cc(Nc3ccc(N4CCN(C)CC4)cc3)ncn2)cc1 [compound 73707531]	0.001 µM	0.001 µM			
		COc1cc(CCc2cc(Nc3ncnc4cc(N5CCN6CCCCC6C5)ccc34)n[nH]2)cc(OC)c1 (stereo not shown) [compound 127047969]	0.0002 µM	0.0002 µM			
		Cc1oc2c(c1C(=O)N1CC[C@H](N)C1)C(=O)c1c(c(O)c3ccccc3c1O)C2=O [compound 137631210]	5 µM	5 µM			
0.7	3.5	COC(=O)c1ccc2c(C(=Nc3ccc(-n4c(C)ccc4CN4CCN(C)CC4)cc3)c3ccccc3)c(O)[nH]c2c1 [compound 141475848, Methyl 2-hydroxy-3-[N-[4-[2-methyl-5-[(4-methylpiperazin-1-yl)methyl]pyrrol-1-yl]phenyl]-C-phenylcarbonimidoyl]-1H-indole-6-carboxylate, reference compound]			2.1	0.007 µM	IC50 (VEGFR2 [4]; [6]): 0.0065 µM; IC50 (any gene target; [10]): 0.0099 µM
4.3	1.7	COC(=O)Nc1ccc(-c2c(OC3CCN(C)CC3)nc3c(-c4ccc(OC)c(OC)c4)cnn3c2N)cc1 [compound 156010414, Methyl N-[4-[7-amino-3-(3,4-dimethoxyphenyl)-5-(1-methylpiperidin-4-yl)oxypyrazolo[1,5-a]pyrimidin-6-yl]phenyl]carbamate]			3.0	0.006 µM	
		Cediranib maleate					IC50 (VEGFR2 [4]; read-out: IC50 VEGFR2): 0.001 µM; Body fat (Echo MRI) vs vehicle (Zmpste24−/− mice): did not show an increase; Intrascapular brown fat mass (percent of body weight) vs vehicle (Zmpste24−/− mice): no alteration; Body weight vs vehicle (Zmpste24−/− mice): did not show an increase; Lean muscle vs vehicle (Zmpste24−/− mice): did not show an increase
1.7	8.7	Chembl4213341 [compound 138393067]			5.2	0.037 µM	
2.4	1.2	Chembl4449189 [compound 155520650]			1.8	0.11 µM	
1.1	1.9	Chembl4573547 [compound 155563388]			1.5	0.15 µM	

Compound	VEGFR2, rIC50 (VEGFR2 [2])	FGFR1, rIC50 (FGFR1 [1]; [8])	IC50 (FGFR1 [3])	IC50 (any gene target; [5])	avg rIC50 (VEGFR2 and FGFR1; [7])	IC50 (any gene target; [9])	further results
Cc1c[nH]c(/C=C2\C(=O)Nc3ccccc32)c1CCC(=O)O [compound 5289418, 3-[(3-(2-Carboxyethyl)-4-methylpyrrol-2-YL)methylene]-2-indolinone]	0.7						Body fat (Echo MRI) vs vehicle (Zmpste24−/− mice): increase in body mass starting at 9 weeks of age; Intrascapular brown fat mass (percent of body weight) vs vehicle (Zmpste24−/− mice): made up for more of the body weight percent; Body weight vs vehicle (Zmpste24−/− mice): increase in body weight starting at 12 weeks of age; Lean muscle vs vehicle (Zmpste24−/− mice): increase in lean muscle starting at 15 weeks of age; avg rIC50 (VEGFR2 and FGFR1): 1.1; FGFR1, rIC50 (FGFR1 [1]): 1.5; IC50 (any gene target; read-out: Min IC50_μM): 0.03 µM; IC50 (any gene target; read-out: min IC50): 0.03 µM
CCc1nnc(-c2cn3ncnc(Nc4cc(C(=O)NOC)c(F)cc4F)c3c2C(C)C)o1 [compound 11374515, 5-[6-(5-Ethyl-[1,3,4]oxadiazol-2-yl)-5-isopropyl-pyrrolo[2,1-f][1,2,4]triazin-4-ylamino]-2,4-difluoro-N-methoxy-benzamide, reference compound]	1.0	2.6			1.8	0.002 µM	IC50 (VEGFR2 [4]; [11]): 0.0018 µM; IC50 (any gene target; [12]): 0.0018 µM
